For 13 molecules, IC50 results are on record in patent publication US20250270208A1, “BICYCLIC HETEROCYCLES AS MRGPRX2 ANTAGONISTS” (Incyte Corporation, priority 2023, published 2025).

SMILES strings stand for the structures.

One may read the IC50 as the midpoint of a concentration-inhibition curve.

Holding throughout (type): cell-based
Experiment [1] has as its target T1, MRGPRX2 (Homo sapiens, UniProt Q96LB1).
T1 sequence (Q96LB1 1-330): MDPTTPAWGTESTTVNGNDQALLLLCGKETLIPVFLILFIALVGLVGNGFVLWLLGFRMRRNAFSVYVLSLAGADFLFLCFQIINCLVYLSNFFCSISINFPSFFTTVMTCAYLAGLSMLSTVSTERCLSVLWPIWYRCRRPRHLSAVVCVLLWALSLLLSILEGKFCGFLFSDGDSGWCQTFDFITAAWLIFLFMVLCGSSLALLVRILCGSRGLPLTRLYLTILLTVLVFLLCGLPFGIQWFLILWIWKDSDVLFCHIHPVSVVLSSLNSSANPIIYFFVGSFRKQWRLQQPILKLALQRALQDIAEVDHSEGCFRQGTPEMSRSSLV
The experiment is described as follows: MRGPRX2 FLIPR calcium mobilization assay. Set-up: host or cells: CHO-K1. To be noted: CHO-K1 cells stably expressing human MRGPRX2; Ca2+ release; agonist Cortistatin-14 at EC80. As to the method:
Chinese hamster ovary (CHO-K1) cells stably expressing human MRGPRX2 were purchased from Genescript (Piscataway, NJ). The cells were maintained in culture medium (Ham's F-12K) containing 10% (v/v) FBS, 200 μg/mL Zeocin, 100 units/mL penicillin G and 100 μg/mL streptomycin (Life Technologies, Carlsbad, CA). For the assay, the cells were harvested and resuspended with culture medium without Zeocin before plating at 8000 cells per well in 20 μL in 384-well black clear bottom cell culture plates (VWR, Radnor, PA). After 24 hour culture at 37° C. and 5% CO2, the cells were loaded with 20 μL/well of calcium dye (FLIPR Calcium 6 Assay Kit, Molecular Devices, San Jose, CA) diluted in loading buffer (1× Hank's Balanced Salt Solution (HBSS), 5 mM probenecid, 20 mM 4-(2-hydroxyethyl)-1-piperazineethanesulfonic acid (HEPES), pH 7.4, VWR, Radnor, PA) followed with 45 min incubation at 37° C. and 40 min. at r.t. in the dark. Cells were then treated with the addition of 10 uL/well test compounds with a range of increasing concentrations diluted in the assay buffer (1×HBSS, 20 mM HEPES, pH 7.4, VWR, Radnor, PA) with FLIPR Penta (Molecular Devices. San Jose, CA) and incubated for 30 min. at r.t. Ca^2+ release was measured with FLIPR Penta with 10 s basal fluorescence measurement, then 12.5 μL of 5× agonist Cortistatin-14 (Tocris, Minneapolis, MN) at final concentration corresponding to the EC80 were added followed with continued fluorescence signal monitoring for an additional 110 s. The base line adjusted (median of first 10 s base line) max value of the Relative Fluorescence Unit (RFU) was plotted against compound concentrations. Wells with no compound were served as the positive controls, and wells with high concentration of reference antagonist were used as negative controls. IC50 curves were globally fitted with 3- or 4-parameter Hill equation in a Genedata Screener (Genedata Basel, Switzerland).
A general note: Calcium flux is commonly read through the fluorescence of an indicator in the cells.

Experiment [2] addresses T1, MRGPRX2. Description: MRGPRX2 IP1 HTRF assay. Set-up: host or cells: CHO-K1. Conditions: CHO-K1 cells stably expressing human MRGPRX2; IP1 accumulation; agonist Cortistatin 14 1 μM. As to the method:
This assay measures compound inhibition of myo-Inositol 1 phosphate (IP1) accumulation in CHO-K1 cells. Chinese hamster ovary (CHO-K1) cells stably expressing human MRGPRX2 were purchased from GenScript (Piscataway, NJ).
For the HTRF IP1 determination, an IP-One GqKit (Perkin Elmer Cisbio, Waltham, MA), which includes all reagents and buffers in this protocol, was used. The cells were maintained in culture medium (Ham's F-12K) containing 10% (v/v) FBS, and 200 μg/mL Zeocin. For the assay, the cells were harvested and resuspended in culture medium with 2% FBS and without Zeocin, then were passed through a 40 μm filter. Cells were added at 20000 cells in a 5 μL/well to a 384-well white small volume cell culture plate (Greiner VWR, Radnor, PA) which contained 50 nL/well of test compound serially diluted at a selected concentration range in DMSO. 5 μL/well of prepared 2× Stimulation Buffer 2 was then added to plates and was incubated at 37° C. with 5% CO2 for 1 h. 5 μL/well of agonist Cortistatin 14 (Bio-TechneR&D Systems, Minneapolis, MN) in 1× Stimulation Buffer 2, for a 1 μM final concentration, was then added to plates and incubated at 37° C. with 5% CO2 for 1 h. 6 μL/well of 1:20 diluted Detection Reagent Mix (d2 and Cryptate) was added to the plates and incubated for 1 h in the dark. Plates were read on the PHERAstar microplate reader (BMG Labtech Cary, NC) to determine the HTRF ratio of the acceptor and donor emission signals. The IP1 concentrations were calculated from a standard curve following the IP-One GQ kit instructions. Wells with DMSO only and wells with high concentration of reference antagonist were used as controls for normalization. Compound IC50 curves were globally fitted with 3- or 4-parameter Hill equation in a Genedata Screener (Genedata Basel, Switzerland).
On the technique in general: Time-resolved FRET reads energy transfer from a long-lived donor to a nearby acceptor.

Experiment [3] deals with T1, MRGPRX2. The experiment is described as follows: MRGPRX2 β-Arrestin assay. Set-up: host or cells: PathHunter CHO-K1. Conditions: PathHunter CHO-K1 MRGPRX2 β-Arrestin cell line; agonist Cortistatin 14 0.25 μM. From the text:
This assay measures compound inhibition of β-Arrestin recruitment, which is part of the G protein-independent pathway that results from the ligand-activated GPCR phosphorylation by specific GPCR kinases. The PathHunter CHO-K1 MRPGRX2 β-Arrestin Cell line stably expressing ProLink tagged MRGPRX2 and Enzyme Acceptor Tagged β-Arrestin was purchased from Eurofins DiscoverX, (Fremont, CA).
The cells were maintained in culture medium from the Europhins DiscoverX Cell Culture Kit-107 which includes FBS, hygromycin B and G418. For the assay, the cells were harvested and were resuspended with Cell Plating Reagent 2 (Eurofins DiscoverX). Cells were added 10000 cells in 25 μL/well to a 384-well black cell culture plate (Greiner VWR, Radnor, PA) which contained 125 nL/well of compound at a selected serially diluted concentration range or DMSO. The plate was incubated at 37° C. with 5% CO2 for 1 h. 2 μL/well of agonist Cortistatin 14 was diluted in Protein Dilution Buffer, (Eurofins DiscoverX) for a final concentration of 0.25 μM, was added and the plate was incubated at 37° C. with 5% CO2 for 90 min. 14 μL/well of Detection Reagent Mix (PathHunter Detection Kit, Eurofins DiscoverX) was added to the plates and further incubated for 1 h in the dark. Plates were read on the PHERAstar microplate reader (BMG Labtech Cary, NC) measuring luminescence 0.1 to 1 s per well. Data was normalized using DMSO only wells and wells with high concentration of reference antagonist as controls. Compound IC50 curves were globally fitted with 3- or 4-parameter Hill equation in a Genedata Screener (Genedata Basel, Switzerland).

As to `Cn1cnc2ccnc(N[C@@H]3CCC[C@H](Nc4cc(C(F)(F)F)nc5ccc(Cl)cc45)C3)c21` [Example 4, (1S,3R)-N^1-(6-Chloro-2-(trifluoromethyl)quinolin-4-yl)-N^3-(3-methyl-3H-imidazo[4,5-c]pyridin-4-yl)cyclohexane-1,3-diamine], the IC50 on MRGPRX2 [1], on MRGPRX2 [2] and on MRGPRX2 [3] was 0.1 to 100 nM throughout.
`FC(F)(F)c1cc(N[C@H]2CCC[C@@H](Nc3nccc4ncccc34)C2)c2cc(Cl)ccc2n1` [Example 5, (1S,3R)-N^1-(6-Chloro-2-(trifluoromethyl)quinolin-4-yl)-N^3-(1,6-naphthyridin-5-yl)cyclohexane-1,3-diamine]: the IC50 at MRGPRX2 [1], on MRGPRX2 [2] and at MRGPRX2 [3] was 0.1 to 100 nM each time.
For `FC(F)(F)c1cc(N[C@H]2CCC[C@@H](Nc3nccn4cncc34)C2)c2cc(Cl)ccc2n1` [Example 9, (1S,3R)-N^1-(6-Chloro-2-(trifluoromethyl)quinolin-4-yl)-N^3-(imidazo[1,5-a]pyrazin-8-yl)cyclohexane-1,3-diamine], the half-inhibitory concentration (IC50) at MRGPRX2 [1], on MRGPRX2 [2] and at MRGPRX2 [3] was 0.1 to 100 nM in each case.
In the case of `Cc1ncc2c(N[C@@H]3CCC[C@H](Nc4cc(C(F)(F)F)nc5ccc(Cl)cc45)C3)nccn12` [Example 10, (1S,3R)-N^1-(6-Chloro-2-(trifluoromethyl)quinolin-4-yl)-N^3-(3-methylimidazo[1,5-a]pyrazin-8-yl)cyclohexane-1,3-diamine], the IC50 at MRGPRX2 [1], at MRGPRX2 [2] and at MRGPRX2 [3] was 0.1 to 100 nM each time.
With `Cc1cc2c(N[C@@H]3CCC[C@H](Nc4cc(C(F)(F)F)nc5ccc(Cl)cc45)C3)nccn2n1` [Example 11, (1S,3R)-N^1-(6-Chloro-2-(trifluoromethyl)quinolin-4-yl)-N^3-(2-methylpyrazolo[1,5-a]pyrazin-4-yl)cyclohexane-1,3-diamine], the IC50 at MRGPRX2 [1], on MRGPRX2 [2] and at MRGPRX2 [3] was 0.1 to 100 nM in each case.
On to `FC(F)(F)c1cc(N[C@H]2CC[C@@H](Nc3nccc4ncccc34)CC2)c2cc(Cl)ccc2n1` [Example 13, (1s,4s)-N^1-(6-Chloro-2-(trifluoromethyl)quinolin-4-yl)-N^4-(1,6-naphthyridin-5-yl)cyclohexane-1,4-diamine], for which the IC50 on MRGPRX2 [1], on MRGPRX2 [2] and on MRGPRX2 [3] was 0.1 to 100 nM throughout.
Turning to `Cn1cnc2ccnc(N[C@@H]3CCC[C@H](Nc4cc(C(F)(F)F)nc5ccc(F)cc45)C3)c21` [Example 14, (1S,3R)-N^1-(6-Fluoro-2-(trifluoromethyl)quinolin-4-yl)-N^3-(3-methyl-3H-imidazo[4,5-c]pyridin-4-yl)cyclohexane-1,3-diamine], the half-inhibitory concentration (IC50) at MRGPRX2 [1], at MRGPRX2 [2] and on MRGPRX2 [3] was 0.1 to 100 nM each time.
For `Cn1cnc2ccnc(N[C@@H]3CCC[C@H](Nc4cc(C(F)(F)F)nc5ccccc45)C3)c21` [Example 15, (1R,3S)-N^1-(3-Methyl-3H-imidazo[4,5-c]pyridin-4-yl)-N^3-(2-(trifluoromethyl)quinolin-4-yl)cyclohexane-1,3-diamine], the IC50 at MRGPRX2 [1] lay within 0.1 to 100 nM; at MRGPRX2 [2] it was 100 to 1000 nM; on MRGPRX2 [3] it was 0.1 to 100 nM.
On to `Cn1cnc2ccnc(N[C@@H]3CCC[C@H](Nc4cc(C(F)(F)F)nc5ccc(Br)cc45)C3)c21` [Example 16, (1S,3R)-N^1-(6-Bromo-2-(trifluoromethyl)quinolin-4-yl)-N^3-(3-methyl-3H-imidazo[4,5-c]pyridin-4-yl)cyclohexane-1,3-diamine], for which the 50% inhibitory concentration (IC50) at MRGPRX2 [1], on MRGPRX2 [2] and at MRGPRX2 [3] was 0.1 to 100 nM in each case.
As for `Cc1ccc2nc(C(F)(F)F)cc(N[C@H]3CCC[C@@H](Nc4nccc5ncn(C)c45)C3)c2c1` [Example 17, (1S,3R)-N^1-(6-Methyl-2-(trifluoromethyl)quinolin-4-yl)-N^3-(3-methyl-3H-imidazo[4,5-c]pyridin-4-yl)cyclohexane-1,3-diamine], the concentration for half-maximal inhibition (IC50) at MRGPRX2 [1], at MRGPRX2 [2] and on MRGPRX2 [3] was 0.1 to 100 nM throughout.
As for `Cn1ncc2c(N[C@@H]3CCC[C@H](Nc4cc(C(F)(F)F)nc5ccc(Cl)cc45)C3)nccc21` [Example 19, (1S,3R)-N^1-(6-Chloro-2-(trifluoromethyl)quinolin-4-yl)-N^3-(1-methyl-1H-pyrazolo[4,3-c]pyridin-4-yl)cyclohexane-1,3-diamine], the IC50 at MRGPRX2 [1], on MRGPRX2 [2] and on MRGPRX2 [3] was 0.1 to 100 nM in each case.
For the molecule `Cn1c(C#N)cnc1N[C@@H]1CCC[C@H](Nc2cc(C(F)(F)F)nc3ccc(Cl)cc23)C1` [Example 20, 2-(((1R,3S)-3-((6-Chloro-2-(trifluoromethyl)quinolin-4-yl)amino)cyclohexyl)amino)-1-methyl-1H-imidazole-5-carbonitrile], the IC50 at MRGPRX2 [1], at MRGPRX2 [2] and at MRGPRX2 [3] was 0.1 to 100 nM each time.
With `Cn1c(N[C@@H]2CCC[C@H](Nc3cc(C(F)(F)F)nc4ccc(Cl)cc34)C2)nc2cccnc21` [Example 21, (1S,3R)-N^1-(6-Chloro-2-(trifluoromethyl)quinolin-4-yl)-N^3-(3-methyl-3H-imidazo[4,5-b]pyridin-2-yl)cyclohexane-1,3-diamine], the half-maximal inhibitory concentration (IC50) at MRGPRX2 [1], at MRGPRX2 [2] and on MRGPRX2 [3] was 0.1 to 100 nM throughout.
